Experimental data taken from patent publication US20260216134A1, “CHARGED PI-CONJUGATED MOLECULES FOR THE TREATMENT OF MICROBIAL INFECTIONS” (priority 2023, published 2026).
Like-named read-outs stand apart in the source and are kept apart here.

Key:
[1] = tested on: A375 cancer cells (melanoma); assay: Crystal violet cytotoxicity test in A375 cells without light activation; type: cell-based, human
Protocol: (§1) The inhibitory concentration of charged pi-conjugated compounds needed to inhibit the cell growth by 50% (toxicity IC50).
(§2) Most of the charged pi-conjugated compounds are aminocyanines which are functionalized with alkyl amine group. The charged pi-conjugated compounds were added to cell cultures of A375 cancer cells (human melanoma) and their cytotoxicity was quantified by the crystal violet test and/or clonogenic assays for cell viability. […] The longer the exposure the most cytotoxic the charged pi-conjugated compounds are towards A375 cells. […] The same behavior is observed: the longer the exposure, the more cytotoxic. All molecules presented here are aminocyanines except GL-261-2 which is a carboxyl-cyanine. […] This was the first time a therapeutic window of concentration that can be tuned to selectively kill cancer and/or protect cells was suspected. In finding this therapeutic window concentration and time of exposure are important variables that should be fine tuned.
(§3) Based on the finding described above, a larger set of charged pi-conjugated compounds was evaluated for cytotoxicity against A375 cancer cells as shown in FIG. 25 and FIG. 26.
(§4) The IC50 is the concentration needed to inhibit the cell viability by 50%. These molecules in FIG. 25 and FIG. 26 were evaluated by crystal violet assay and using 2 days of exposure.

[2] = tested on: A375 cancer cells (melanoma); assay: Clonogenic assay cytotoxicity in A375 cells without light; type: cell-based, human
Protocol: (§5) FIGS. 28A-28B provide a summary of the evidence of the cytotoxicity of charged pi-conjugated compounds without light. Toxicity was measured using clonogenic assay with 7 hours of incubation (contact time between molecules and A375 cells) and 7 days for colony formation. (FIG. 28A) The lethal concentration of the cyanine molecules to kill 50% of the A375 cells (Tox LC50) without light activation. (FIG. 28B) Chemical structure of exemplary charged pi-conjugated compounds. On average, 300 cells equal to 300 colonies were seeded and analyzed for each data point.
(§6) Both properties were measured using clonogenic assay with 7 hours of incubation (contact time between molecules and A375 cells) and 7 days for colony formation. 300 cells were seeded and analyzed for each data point.
(§7) More cytotoxicity tests were conducted in some additional molecules and using clonogenic assay for cell viability (FIG. 28). A375 cells were exposed to charged pi-conjugated compounds for 7 hours, in contrast to the previously presented assays which were conducted with crystal violet assay and 2 days of exposure. The data points showing the cytotoxicity quantification for each individual molecule are presented in FIG. 29, with resulting IC50 values summarized in Table 4.

[3] = Crystal violet cytotoxicity test in A375 cells without light activation; type: cell-based, human; conditions: human
Protocol: as §1, §2, §3, §4

[4] = Clonogenic assay cytotoxicity in A375 cells without light; type: cell-based, human; conditions: human
Protocol: as §5, §6, §7

[5] = tested on: Gram-positive strains; assay: MIC / MIC50 by broth microdilution in panel of Gram-positive strains; type: cell-based; conditions: MIC50 over all Gram-positive strains tested (Table 2)
Protocol: Antibacterial activity was assessed by determining the minimal inhibitory concentration (MIC) and the minimal bactericidal concentrations (MBC) and by monitoring time-dependent bacterial killing of exponentially growing cells. Bacterial cell suspensions (OD600≈0.02 in cation-adjusted Muller-Hinton Broth) were treated with increasing concentrations of the different molecules. The minimal inhibitory concentration (MIC) was defined as the minimal concentration of the molecule resulting in complete bacterial growth arrest. The minimal bactericidal concentration (MBC) was defined as the lowest concentration of the molecule that killed 99.9% of the inoculum. A molecule was determined to be bactericidal if the ratio of the MBC to the MIC was less than 4 to 6. […] In M. smegmatis, the antibacterial activity of charged pi-conjugated compounds was generally lower.
The MIC values for all Gram-positive strains tested (Table 2) were used to calculate the MIC50, i.e., the minimum inhibitory concentration needed to inhibit the growth of 50% of the tested isolates (FIG. 5A). […] When the average MIC50 values were evaluated, the most susceptible bacterial genera were Streptococcus sp., followed by Staphylococcus sp. In contrast, Propionibacterium sp. had the highest average MIC50 (FIG. 5B).
The broth microdilution method was used to determine the MIC of charged pi-conjugated compounds according to the CLSI guidelines. Charged pi-conjugated compound stock solutions (16 mM) were prepared in dimethyl sulfoxide (DMSO). Serial twofold dilutions of the charged pi-conjugated compounds were freshly prepared using the appropriate liquid media (Table 2), and 100 μL of each dilution was added to the appropriate wells of 96-well microtiter plates. The bacterial inoculum was further diluted in liquid media, and 100 μL was added to each well, resulting in a final cell density of ≈5×10^5 CFU mL^−1. […] A molecule was determined to be bactericidal if the ratio of the MBC to the MIC was less than 4 to 6. […]

[6] = tested on: S. aureus; assay: Time-kill of combinations at 0.5×MIC; type: cell-based, Staphylococcus aureus; conditions: 0.5×MIC of individual agent, after 12 h of treatment
[7] = crystal violet assay, 2 days of exposure, without light activation, read-out: IC50 (μM), cytotoxicity to A375 cancer cells
[8] = clonogenic assay, 7 hours of exposure, 7 days colony formation, without light, read-out: IC50 (μM), cytotoxicity to A375 cancer cells

In the case of `CN1/C(=C/C=C2C=C(/C=C/C3=[N+](C)c4ccc5ccccc5c4C3(C)C)CCC/2)C(C)(C)c2c1ccc1ccccc21` [BL-141-1, 1,1,3-trimethyl-2-((E)-2-((E)-3-((E)-2-(1,1,3-trimethyl-1,3-dihydro-2H-benzo[e]indol-2-ylidene)ethylidene)cyclohex-1-en-1-yl)vinyl)-1H-benzo[e]indol-3-ium], the IC50 [1, 7] is reported as 0.125 µM and the IC50 [2, 8] is reported as 0.14 µM.
For `CN(C)CCCCCCN1/C(=C/C=C2C=C(/C=C/C3=[N+](CCCCCCN(C)C)c4ccc5ccccc5c4C3(C)C)CCC/2)C(C)(C)c2c1ccc1ccccc21.[Br-]` [BL-142, 3-(6-(dimethylamino)hexyl)-2-((E)-2-((E)-3-((E)-2-(3-(6-(dimethylamino)hexyl)-1,1-dimethyl-1,3-dihydro-2H-benzo[e]indol-2-ylidene)ethylidene)cyclohex-1-en-1-yl)vinyl)-1,1-dimethyl-1H-benzo[e]indol-3-ium], the IC50 at 2 days [3] was 2.5 µM and the “cytotoxicity at long exposure” value [1] was “showed cytotoxicity”.
`CN1/C(=C/C=C2C=C(/C=C/C3=[N+](CCCCCC(=O)O)c4ccc5ccccc5c4C3(C)C)CCC/2)C(C)(C)c2c1ccc1ccccc21` [BL-242, 3-(5-carboxypentyl)-1,1-dimethyl-2-((E)-2-((E)-3-((E)-2-(1,1,3-trimethyl-1,3-dihydro-2H-benzo[e]indol-2-ylidene)ethylidene)cyclohex-1-en-1-yl)vinyl)-1H-benzo[e]indol-3-ium] gave an IC50 at 7 h [4] of 2 µM.
Compound `COC(=O)CCCCCN1/C(=C/C=C2C=C(/C=C/C3=[N+](CCCCCC(=O)OC)c4ccc5ccccc5c4C3(C)C)CCC/2)C(C)(C)c2c1ccc1ccccc21` [BL-246-1, 3-(6-methoxy-6-oxohexyl)-2-((E)-2-((E)-3-((E)-2-(3-(6-methoxy-6-oxohexyl)-1,1-dimethyl-1,3-dihydro-2H-benzo[e]indol-2-ylidene)ethylidene)cyclohex-1-en-1-yl)vinyl)-1,1-dimethyl-1H-benzo[e]indol-3-ium] has an IC50 at 7 h [4] of 0.6 µM.
With `C[N+]1=C(C=CC=CC=C2N(CCCCCC(=O)NCCCCCCN)c3ccccc3C2(C)C)C(C)(C)c2ccccc21` [Cy5-amine] the IC50 [1] was 8 µM.
With `C[N+]1=C(/C=C/C=C/C=C2/N(CCCCCC(=O)NCCCCCCN)c3ccc4ccccc4c3C2(C)C)C(C)(C)c2c1ccc1ccccc21.Cl.[Cl-]` [Cy5.5-amine] the IC50 [1] was 2 µM, the “cytotoxicity at short exposure” value [1] was “safe and showed low cytotoxicity” and the “antibacterial activity according to MIC50” value [5] was “strongest antibacterial activity”.
`C[N+]1=C(/C=C/C2=CC(=C/C=C3/N(CCCCCC(=O)NCCCCCCN)c4ccccc4C3(C)C)/CCC2)C(C)(C)c2ccccc21` [Cy7-amine] showed an IC50 [1] of 2 µM and an IC50 [2] of 0.75 µM.
`CN1/C(=C/C=C/C=C/C=C/C2=[N+](C)c3ccc4ccccc4c3C2(C)C)C(C)(C)c2c1ccc1ccccc21` [GL-176] showed an IC50 [1] of 0.25 µM.
With `CN1/C(=C/C=C/C=C/C=C/C2=[N+](CCCCCC(=O)O)c3ccc4ccccc4c3C2(C)C)C(C)(C)c2c1ccc1ccccc21` [GL-261-2] the IC50 at 2 days [3, 7] was 2 µM, the “cytotoxicity at short exposure” value ([1]; A375, exposure ~30-50 min) was “safe and showed low cytotoxicity” and the “effect toward A375 cells at short exposure” value ([1]; ~50 min exposure, 1-4 μM) was “protective effect”. The IC50 at 7 h [4, 8] was 5 µM.
With `CN1/C(=C/C=C/C=C/C=C/C2=[N+](CCCCCCN)c3ccc4ccccc4c3C2(C)C)C(C)(C)c2c1ccc1ccccc21` [GL-286] the IC50 at 2 days [3, 7] was 2.88 µM, the “cell viability at short incubation and low concentration” value ([1]; 1 day incubation, concentrations below 1 μM) was “can increase the cell viability” and the “cytotoxicity at long exposure” value ([1]; A375, 1 day vs 2 days exposure) was “showed cytotoxicity”. It also gave an IC50 at 7 h [4, 8] of 1 µM.
For `CN(C)CCCCCC[N+]1=C(/C=C/C=C/C=C/C=C2/N(C)c3ccc4ccccc4c3C2(C)C)C(C)(C)c2c1ccc1ccccc21` [GL-291-2], the IC50 at 2 days [3] was 1.5 µM and the “cytotoxicity at long exposure” value [1] was “showed cytotoxicity”.
For `COC(=O)C(/C=C/C=C1/N(C)c2ccc3ccccc3c2C1(C)C)=C(C)\C=C\C1=[N+](CCCCCCN(C)C)c2ccc3ccccc3c2C1(C)C` [GL-297-2], the IC50 at 2 days [3] was 1 µM and the IC50 at 7 h [4] was 0.45 µM.
For `CN(C)CC[N+]1=C(/C=C/C=C/C=C/C=C2/N(C)c3ccc4ccccc4c3C2(C)C)C(C)(C)c2c1ccc1ccccc21` [GL-308-2], the IC50 at 2 days [3] was 0.5 µM.
Work on `CN1/C(=C/C=C/C=C/C=C/C2=[N+](CCCCCC[N+](C)(C)C)c3ccc4ccccc4c3C2(C)C)C(C)(C)c2c1ccc1ccccc21` [GL-328-2] yielded an IC50 at 2 days [3] of 7 µM.
`CN(C)CC[N+]1=C(/C=C/C2=CC(=C/C=C3/N(C)c4ccc5ccccc5c4C3(C)C)/CC(C(C)(C)C)C2)C(C)(C)c2c1ccc1ccccc21` (stereo not shown) [GL-349-2] gave an IC50 at 2 days [3] of 0.3 µM.
Compound `CC(=O)NCCCCCC[N+]1=C(/C=C/C=C/C=C/C=C2/N(C)c3ccc4ccccc4c3C2(C)C)C(C)(C)c2c1ccc1ccccc21` [GL-362-2] has an IC50 at 7 h [4] of 0.19 µM.
In the case of `CCCCCCCCCC(=O)N[C@@H](Cc1c[nH]c2ccccc12)C(=O)N[C@H](CC(N)=O)C(=O)N[C@@H](CC(=O)O)C(=O)N[C@@H]1C(=O)NCC(=O)N[C@@H](CCCN)C(=O)N[C@@H](CC(=O)O)C(=O)N[C@H](C)C(=O)N[C@@H](CC(=O)O)C(=O)NCC(=O)N[C@H](CO)C(=O)N[C@@H]([C@H](C)CC(=O)O)C(=O)N[C@@H](CC(=O)c2ccccc2N)C(=O)O[C@@H]1C` [daptomycin], the “maximum reduction in bacterial population size” value [6] is reported as “≈ 3 log10”.
With gramicidin the “maximum reduction in bacterial population size” value [6] was “≈ 3 log10”.
